# In US8741871B2, “Trehalose compound, method for producing same, and pharmaceutical product containing the compound” (priority 2008, dated 2014):
# Key:
# Pseudomonas aeruginosa [1] = format: in vivo
# Pseudomonas aeruginosa [2] = format: in vivo; details: 100 μg/mouse i.p., twenty-four hours later infection; blood fifteen hours after bacteria; FIG. 19
# Method: Twenty-four hours later, the mice were infected with 3.0×10^10 CFU/mL Pseudomonas aeruginosa. Fifteen hours after administration of the bacteria, blood was collected from the heart using an injection with a needle tip containing a small amount of heparin, and 200 μL of whole blood was then inoculated on a common agar medium. Thereafter, it was incubated in an incubator for 16 hours. Subsequently, the number of colonies on the medium was counted.
# When there were a large number of cells, whole blood was diluted with a normal saline solution by a factor of 10, 100, 1000 or 10000, and the thus diluted solution was inoculated on a common agar medium.
# [3] = system: breast cancer cells (FM3A cells); format: in vivo; details: 100 μg/mouse i.p. twenty-four hours before FM3A inoculation, nineteen days later
# Method: The 100 μg/mouse test compound obtained in Example 9 (emulsion solution) was intraperitoneally administered to each mouse, and twenty-four hours later, breast cancer cells (FM3A cells) were inoculated into the abdominal cavity thereof. Nineteen days later, the body weight of each mouse was measured. In addition, the tissue sections of diaphragm, pancreas and testis were subjected to HE staining, and they were then observed under a microscope. As a result, the body weight of the breast cancer cell-inoculated mouse was increased by approximately 10 g, when compared with a control mouse, and it was observed that the mouse contained a large amount of ascites fluid.
# rabbit neutrophils [4] = assay: Measurement of amount of active oxygen released from rabbit neutrophils; format: cell-based; details: 50 μM, 2 hours; FIG. 3
# Method: 5 ml of the ACD solution was placed in a 20-ml syringe (injection needle [Nipro]), so that the inside of the syringe was entirely rinsed therewith. 20 ml of blood was collected from the central auricular artery of a rabbit using the syringe, and the collected blood was gently shaken upside down. Thereafter, the blood was dispensed into three centrifuge tubes (15 ml type; Falcon), and each tube was then subjected to centrifugation at 4° C. at 1,500 rpm for 5 minutes. Thereafter, the supernatant was recovered into a centrifuge tube (50 ml type; Falcon). A 1.2% dextran-PBS solution was added to the recovered supernatant in an amount equal the supernatant, and the obtained mixture was then gently shaken upside down. Thereafter, the mixture was left at a room temperature for 30 minutes or more. The emergence of an interface was confirmed, and the supernatant was placed in a new centrifuge tube (50 ml type; Falcon). […]
# The influence of the test compound on the release of active oxygen from rabbit neutrophils was measured by the following procedures.
# Neutrophils (1.0×10^5 cells/100 μl) were plated on a 96-well plate (Falcon). […] The obtained mixture was incubated at 37° C. for 2 hours, and the amount of active oxygen released was measured using a fluorescence measurement apparatus (Ex: 485 nm, Em: 535 nm).
# rabbit neutrophils [5] = format: cell-based
SMILES,"lethality of Pseudomonas aeruginosa-infected mice, post-administration (Pseudomonas aeruginosa [1]; 100 μg/mouse i.p. three hours after infection with Pseudomonas aeruginosa, FIG. 18)","lethality of Pseudomonas aeruginosa-infected mice, pre-administration (Pseudomonas aeruginosa [1]; pre-administration 100 μg/mouse i.p., twenty-four hours later 3.0×10^10 CFU/mL Pseudomonas aeruginosa i.p., FIG. 17)",Pseudomonas aeruginosa cells in mouse blood (colonies) (Pseudomonas aeruginosa [2]),body weight of breast cancer cell-inoculated mouse [3],"infiltration and metastasis of the cancer cells into various organs (diaphragm, pancreas, testis) ([3]; HE staining, FIG. 20)","action to activate the release of active oxygen from rabbit neutrophils, compared with TDCM (rabbit neutrophils [4])","phagocytic ability of rabbit neutrophils, activity compared with TDCM (rabbit neutrophils [5])"
"CCCCCCCCCC(CCCCCCCCC)CC(=O)OCC1O[C@H](O[C@H]2OC(COC(=O)CC(CCCCCCCCC)CCCCCCCCC)[C@@H](O)C(O)C2O)C(O)C(O)[C@@H]1O (stereo partly drawn) [Example 9, 6,6′-bis-O-(3-nonyldodecanoyl)-α,α′-trehalose]",significantly suppressed,significantly suppressed,not detected,equivalent to that of a control mouse,not observed at all,–,–
"CCCCCCCCCCC(CCCCCCCCCC)C(=O)OCC1O[C@H](O[C@H]2OC(COC(=O)C(CCCCCCCCCC)CCCCCCCCCC)[C@@H](O)C(O)C2O)C(O)C(O)[C@@H]1O (stereo partly drawn) [Example 1, 6,6′-bis-O-(2-decyldodecanoyl)-α,α′-trehalose]",–,–,–,–,–,approximately two times higher than the activity of TDCM,approximately 2 times
